Target: T1, urease (from jack beans) (Canavalia ensiformis, UniProt P07374)
T1 construct: solid urease (from jack beans); lyophilized 5 U/mg for urea assay in serum; purchased Merck article No. 4194753; host or cells: jack beans (natural source)
Assay type: biochemical
Details: comparison of inventive with comparative examples, table 1
Experimental: To evaluate the odor-inhibiting effect of the compositions of the present invention, the inhibition of the activity of urease in the formation of ammonia from urea is determined. The determination is carried out at room temperature. 2 g of the substance to be tested (superabsorbent, composition according to the present invention) are weighed into a 100 ml Erlenmeyer flask. 30 mg of solid urease (from jack beans; lyophilized 5 U/mg for urea assay in serum; Merck, article No. 4194753) is weighed into a 100 ml glass beaker. 50 ml of 0.9% sodium chloride solution in urea (8.56 g/L) are added to the urease. The entire contents of the glass beaker are poured swiftly onto the sample in the Erlenmeyer flask, a diffusion tubelet (Dräger Röhrchen, ammonia 20/a-D, 20-1500 ppm*h, order No. 8101301) is as intended broken open, inserted into a rubber stopper which fits the Erlenmeyer flask and the Erlenmeyer flask is sealed with the stopper such that the open end of the diffusion tubelet points inward. […] The measurement is in each case carried out as a duplicate determination, and the result reported is the average between the two readings which has been rounded to the nearest whole number.

T1 sequence (P07374 whole entry, looked up): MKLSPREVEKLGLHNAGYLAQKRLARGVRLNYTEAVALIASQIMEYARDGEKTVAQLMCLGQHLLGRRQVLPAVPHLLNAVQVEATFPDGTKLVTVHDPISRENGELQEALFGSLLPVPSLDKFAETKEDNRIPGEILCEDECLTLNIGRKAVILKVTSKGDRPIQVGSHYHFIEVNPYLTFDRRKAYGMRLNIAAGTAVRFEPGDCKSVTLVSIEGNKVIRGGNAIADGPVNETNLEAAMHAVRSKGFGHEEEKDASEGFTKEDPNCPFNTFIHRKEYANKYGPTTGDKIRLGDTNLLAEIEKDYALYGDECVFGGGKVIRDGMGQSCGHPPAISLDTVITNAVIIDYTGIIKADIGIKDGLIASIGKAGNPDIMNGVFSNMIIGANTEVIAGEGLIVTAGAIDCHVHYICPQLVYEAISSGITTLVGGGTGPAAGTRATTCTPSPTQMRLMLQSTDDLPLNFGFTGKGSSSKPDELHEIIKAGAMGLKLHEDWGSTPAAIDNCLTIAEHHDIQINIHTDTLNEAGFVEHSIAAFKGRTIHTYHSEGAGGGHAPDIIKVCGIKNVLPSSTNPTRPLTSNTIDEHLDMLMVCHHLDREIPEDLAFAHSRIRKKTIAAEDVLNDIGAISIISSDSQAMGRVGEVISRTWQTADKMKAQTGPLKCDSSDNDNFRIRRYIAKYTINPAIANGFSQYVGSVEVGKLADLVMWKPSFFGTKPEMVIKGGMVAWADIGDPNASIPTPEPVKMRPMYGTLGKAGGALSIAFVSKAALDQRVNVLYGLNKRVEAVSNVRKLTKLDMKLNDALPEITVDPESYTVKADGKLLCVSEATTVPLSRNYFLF

O=CC(=O)O [glyoxylic acid]
odor-inhibiting effect (in words): demonstrates an odor-inhibiting effect
